The test system of one test is B-16 melanoma cells. Nature of the test: Evaluation of melanin production-inhibitory function (degree of whiteness of cultured cells). On Evaluation of Melanin Production-Inhibition (degree of whiteness of cells): key: ++: The degree of whiteness is higher than that observed for the positive control; +: The degree of whiteness is almost identical to that of the positive control; ±: The degree of whiteness is not higher than that observed for the positive control, but higher than that observed for control; −: The degree of whiteness is almost identical to that observed for the control. The test is classed as cell-based. The text has this: The melanin production-inhibitory function of the 5-membered ring-containing triterpenes incorporated into the foods or beverages and orally administered whitening agents of the present invention can be determined by a test method, which makes use of cultured melanocytes. The term “melanocyte(s)” used herein means cells having an ability of producing melanin and when cultivating these cells in the usual manner, the cells are blackened due to the accumulation of melanin pigment thus produced. Contrary to this, if a substance having such a melanin production-inhibitory function is incorporated into this cultivation system, the melanin production is suppressed and the skin is relatively whitened. The melanin production-inhibitory function can likewise be evaluated on the basis of this degree of relative whitening.
A culture medium (2 mL/well) was dispensed to a 6-well plate, a predetermined amount of B-16 melanoma cells was inoculated into the culture medium in each well and the cells were cultured at 37° C. and 5% CO2 by allowing the culture medium to stand. On the next day, a solution of test sample (each 5-membered ring-containing triterpene to be evaluated) having a predetermined concentration was added to and mixed with the culture medium and the cultivation was continued. On the 5th day from the initiation of the cultivation, the culture medium was exchanged and the test sample solution was again added to each well. On the next day, the culture medium was removed from each well to thus recover the cells, followed by washing the cells with PBS (phosphate-buffered physiological saline) and evaluation of the desired function based on the degree of whiteness of the cells. In this connection, the melanin production-inhibitory effect was evaluated by comparing the resulting degree of whiteness with that observed when 450 ppm of vitamin C-magnesium phosphate having a known effect was added instead of the test sample solution (positive control) and that observed when any test sample was not added (control) according to the following criteria.
The evaluation criteria for the degree of whiteness of cells are as follows: […]

Test [1] has as its system deposition of melanin pigment on the skin induced by the UV light irradiation. The experiment in a line: Animal test for the confirmation of whitening effect (UV-induced skin pigmentation, test feed). As to conditions: free ingestion, 4 weeks; for Evaluation Results CI: number of 7 animals ranked Conspicuous Imp.; for Evaluation Results MI: number of 7 animals ranked Medium Imp.; for Evaluation Results NC: number of 7 animals ranked No Change; for Evaluation Results SI: number of 7 animals ranked Slight Imp. The test is classed as in vivo, Brown guinea pigs. The text has this:
More specifically, the whitening effect can be evaluated by removing a half of the hair on the back of each brown guinea pig, keeping these animals over 2 weeks while irradiating the hair-removed area with a UV lamp, dividing these guinea pigs into groups in such a manner that there is not any difference in the degree of the melanin pigmentation induced by the UN light irradiation, allowing the animals in each group to freely take a test food comprising a feed having a low vitamin C content to which a variety of triterpenes have been added and keeping these animals over additional 4 weeks to evaluate the degree of skin pigmentation while comparing the same with those observed for a control group and for a positive control group.
Brown guinea pigs (5-week-old male animals) were preliminarily kept for one week using a commercially available feed (CG-7 available from Nippon Kurea Company), a half of the hair on the back was removed and the hair-removed portion on the back was irradiated with light rays emitted from a UV lamp of 1.2 mW for 5 minutes on the 1st day and then with light rays emitted from a UV lamp of 1.0 mW for 5 minutes on the 2nd and 3rd days. Subsequently, these animals were kept over 2 weeks using a feed having a low vitamin C content (200.0 mg/kg feed), these guinea pigs were divided into 12 groups (comprising 7 animals each) in such a manner that there was not observed any difference in the degree of deposition of melanin pigment on the skin induced by the UV light irradiation between groups and then the animals were allowed to freely ingest each test feed comprising the feed having a low vitamin C content to which each triterpene had been added in an amount specified in the following Table 2. In this respect, however, the vitamin C-deficient feed per se was supplied to the control group and a vitamin C-supplemented feed was supplied to the positive control group. After 4 weeks from the supply of the test feed, the degree of the pigmentation of the skin was evaluated according to the following criteria.

Where [2] appears, read: Concentration 2 ppm, rank vs 450 ppm vitamin C-magnesium phosphate.
[3] abbreviates: Concentration 6 ppm, rank vs 450 ppm vitamin C-magnesium phosphate.
Where [4] appears, read: Concentration 10 ppm, rank vs 450 ppm vitamin C-magnesium phosphate.
[5] abbreviates: compared with 450 ppm of vitamin C-magnesium phosphate.
[6] abbreviates: Concentration 4 ppm, rank vs 450 ppm vitamin C-magnesium phosphate.
The mark [7] stands for this setting: Concentration 8 ppm, rank vs 450 ppm vitamin C-magnesium phosphate.

Read-outs that look alike come from different tables or passages of the source.

Take `C=C(C)[C@@H]1CC[C@]2(C(=O)O)CC[C@]3(C)[C@H](CC[C@@H]4[C@@]5(C)CC[C@H](O)C(C)(C)[C@@H]5CC[C@]43C)[C@@H]12` [Betulinic acid]: the “Evaluation of Melanin Production-Inhibition (degree of whiteness of cells)” value with B-16 melanoma cells (setting [2]) is “−”. The “Evaluation of Melanin Production-Inhibition (degree of whiteness of cells)” value in the test with B-16 melanoma cells (setting [3]) is reported as “±”. For the same compound, the “Evaluation of Melanin Production-Inhibition (degree of whiteness of cells)” value in the test on B-16 melanoma cells (setting [4]) is “+”. For the same compound, the “melanin production-inhibitory function relative to that observed for the positive control/standard” value in the test with B-16 melanoma cells (setting [5]) was “about 20 times”. Also, in test [1] (500.0 mg/kg feed), the “Evaluation Results CI” value came out at 2, the “Evaluation Results MI” value worked out at 4, the “Evaluation Results NC” value amounted to 0 and the “Evaluation Results SI” value was found to be 1.

On to `CCOC(=O)[C@]12CCC(C)(C)C[C@H]1C1=CC[C@@H]3[C@@]4(C)C[C@@H](O)[C@H](O)C(C)(C)[C@@H]4CC[C@@]3(C)[C@]1(C)CC2` [Compound of Synthetic Example 1, Ethyl Maslinate], for which the “Evaluation of Melanin Production-Inhibition (degree of whiteness of cells)” value with B-16 melanoma cells (setting [2]) is on record as “±”; in the test with B-16 melanoma cells (setting [6]) it was “+”; in the test on B-16 melanoma cells (setting [3]), “++”; in the test with B-16 melanoma cells (setting [7]), “++”; with B-16 melanoma cells (setting [4]), “++”. Also, in the test on B-16 melanoma cells (setting [5]), the “melanin production-inhibitory function relative to that observed for the positive control/standard” value is given as “about 110 times”. Moreover, the “Evaluation Results CI” value in test [1] (500.0 mg/kg feed) was determined as 2. Moreover, the “Evaluation Results MI” value in test [1] (500.0 mg/kg feed) came to 3. Also, in test [1] (500.0 mg/kg feed), the “Evaluation Results NC” value was 1. Besides, the “Evaluation Results SI” value in test [1] (500.0 mg/kg feed) came to 1.

Consider `CC(=O)O[C@@H]1C[C@]2(C)[C@H]3CC=C4[C@@H]5CC(C)(C)CC[C@]5(C(=O)O)CC[C@@]4(C)[C@]3(C)CC[C@H]2C(C)(C)[C@H]1OC(C)=O` [Compound of Synthetic Example 2, 2,3-O-di-Acetyl-Maslinic Acid], for which the “Evaluation of Melanin Production-Inhibition (degree of whiteness of cells)” value with B-16 melanoma cells (setting [2]) was “±”; in the test with B-16 melanoma cells (setting [6]), “±”; with B-16 melanoma cells (setting [3]), “+”; in the test with B-16 melanoma cells (setting [7]), “++”; with B-16 melanoma cells (setting [4]), “++”; in the test on B-16 melanoma cells (Concentration 15 ppm, rank vs 450 ppm vitamin C-magnesium phosphate), “++”. In the test on B-16 melanoma cells (setting [5]), the “melanin production-inhibitory function relative to that observed for the positive control/standard” value was “about 75 times”. For the same compound, the “Evaluation Results CI” value in test [1] (500.0 mg/kg feed) is on record as 2. Further, the “Evaluation Results MI” value in test [1] (500.0 mg/kg feed) came out at 4. Further, the “Evaluation Results NC” value in test [1] (500.0 mg/kg feed) is listed as 0. In test [1] (500.0 mg/kg feed), the “Evaluation Results SI” value came out at 1.

Turning to `CC1(C)CC[C@]2(CO)CC[C@]3(C)C(=CC[C@@H]4[C@@]5(C)CC[C@H](O)C(C)(C)[C@@H]5CC[C@]43C)[C@@H]2C1` [Erythrodiol], the “Evaluation of Melanin Production-Inhibition (degree of whiteness of cells)” value with B-16 melanoma cells (setting [2]) was “±”; in the test on B-16 melanoma cells (setting [3]), “±”; in the test with B-16 melanoma cells (setting [4]), “±”; in the test with B-16 melanoma cells (Concentration 25 ppm, rank vs 450 ppm vitamin C-magnesium phosphate), “+”; in the test on B-16 melanoma cells (Concentration 50 ppm, rank vs 450 ppm vitamin C-magnesium phosphate), “+”. In addition, the “melanin production-inhibitory function relative to that observed for the positive control/standard” value in the test with B-16 melanoma cells (setting [5]) is listed as “about 20 times”. For the same compound, the “Evaluation Results CI” value in test [1] (500.0 mg/kg feed) stood at 2. Also, the “Evaluation Results MI” value in test [1] (500.0 mg/kg feed) turned out to be 2. For the same compound, the “Evaluation Results NC” value in test [1] (500.0 mg/kg feed) was determined as 1. The “Evaluation Results SI” value in test [1] (500.0 mg/kg feed) is 2.

As to `CC1(C)CC[C@]2(C(=O)O)CC[C@]3(C)C(=CC[C@@H]4[C@@]5(C)C[C@@H](O)[C@H](O)C(C)(C)[C@@H]5CC[C@]43C)[C@@H]2C1` [Purified maslinic acid 1, maslinic acid], in the test with B-16 melanoma cells, the “Evaluation of Melanin Production-Inhibition (degree of whiteness of cells)” value is “± and + and ++”; the “concentration at which the function is identical to that observed for 450 ppm of the positive control” value amounted to 4 ppm; the “melanin production-inhibitory function relative to that observed for the positive control/standard” value was “about 110 times”. Further, in test [1] (250.0 mg/kg feed), the “Evaluation Results CI” value is given as 2, the “Evaluation Results MI” value is reported as 3, the “Evaluation Results NC” value was found to be 0 and the “Evaluation Results SI” value worked out at 2. Also, in test [1] (500.0 mg/kg feed, 500 mg/kg), the “Evaluation Results CI” value is on record as 4 and the “Evaluation Results SI” value amounted to 0. In addition, in test [1] (500.0 mg/kg feed), the “Evaluation Results MI” value is listed as 3 and the “Evaluation Results NC” value is 0.

For `CC1(C)CC[C@]2(C(=O)O)CC[C@]3(C)C(=CC[C@@H]4[C@@]5(C)C[C@@H](O)[C@H](O)C(C)(C)[C@@H]5CC[C@]43C)[C@@H]2C1` [Purified maslinic acid 2, maslinic acid], in the test on B-16 melanoma cells, the “Evaluation of Melanin Production-Inhibition (degree of whiteness of cells)” value is “± and + and ++”; the “melanin production-inhibitory function relative to that observed for the positive control/standard” value is “about 110 times”. In addition, in test [1] (500.0 mg/kg feed, 500 mg/kg), the “Evaluation Results CI” value is on record as 3 and the “Evaluation Results SI” value amounted to 1. In test [1] (500.0 mg/kg feed), the “Evaluation Results MI” value is 3 and the “Evaluation Results NC” value is 0.

Regarding `C[C@H]1[C@H](C)CC[C@]2(C(=O)O)CC[C@]3(C)C(=CC[C@@H]4[C@@]5(C)CC[C@H](O)C(C)(C)[C@@H]5CC[C@]43C)[C@H]12` [Ursolic acid], the “Evaluation of Melanin Production-Inhibition (degree of whiteness of cells)” value is recorded as “±” in the test with B-16 melanoma cells (setting [2]); “+” in the test with B-16 melanoma cells (setting [6]); “++” in the test on B-16 melanoma cells (setting [3]); “++” with B-16 melanoma cells (setting [7]); “++” in the test on B-16 melanoma cells (setting [4]). The “melanin production-inhibitory function relative to that observed for the positive control/standard” value in the test on B-16 melanoma cells (setting [5]) is recorded as “about 110 times”. Besides, the “Evaluation Results CI” value in test [1] (500.0 mg/kg feed) stood at 4. Besides, the “Evaluation Results MI” value in test [1] (500.0 mg/kg feed) was 2. In addition, the “Evaluation Results NC” value in test [1] (500.0 mg/kg feed) is recorded as 0. In addition, in test [1] (500.0 mg/kg feed), the “Evaluation Results SI” value came out at 1.

In the case of `C[C@H]1[C@H](C)CC[C@]2(CO)CC[C@]3(C)C(=CC[C@@H]4[C@@]5(C)CC[C@H](O)C(C)(C)[C@@H]5CC[C@]43C)[C@H]12` [Uvaol], the “Evaluation of Melanin Production-Inhibition (degree of whiteness of cells)” value in the test with B-16 melanoma cells (setting [2]) was “−”. The “Evaluation of Melanin Production-Inhibition (degree of whiteness of cells)” value with B-16 melanoma cells (setting [3]) is listed as “−”. Further, the “Evaluation of Melanin Production-Inhibition (degree of whiteness of cells)” value in the test with B-16 melanoma cells (setting [4]) is “+”. In addition, the “melanin production-inhibitory function relative to that observed for the positive control/standard” value in the test with B-16 melanoma cells (setting [5]) is listed as “about 40 times”. Further, in test [1] (500.0 mg/kg feed), the “Evaluation Results CI” value was 1, the “Evaluation Results MI” value came to 4, the “Evaluation Results NC” value came out at 1 and the “Evaluation Results SI” value worked out at 1.

The values are drawn from patent US20040086553A1, “Foods and beverages for whitening and orally administered whitening agents” (The Nisshin OilliO, Ltd., priority 2000, published 2004).
